# Experimental data from paper PMC4027054 (Journal of medicinal chemistry, 2013).
# “Also recorded” adds a separate entry of the source.
# Key:
# [1] = target: AZT-resistant HIV-1 RT (AZTr) D67N/K70R/T215F/K219Q (Human immunodeficiency virus type 1 group M subtype B, UniProt P03366, D666N/K669R/K818Q/T814F); format: biochemical; details: ATP-mediated excision by AZTr RT; chain-terminated primer
# [2] = tested on: AZT-resistant HIV (D67N/K70R/T215F/K219Q); test: Single replication cycle antiviral assay, AZT-resistant virus; format: cell-based; details: read-out: EC50 AZTr HIV
# WT HIV-1 = format: cell-based; details: for antiviral activity in the single replication cycle assay: concentrations up to 10 μM, data not shown
# [3] = tested on: NNRTI-resistant HIV (L100I/K103N); format: cell-based; details: read-out: EC50 NNRTIr HIV
# [4] = Compound cytotoxicity / cell viability in the cytoprotection assay; format: cell-based; details: human, CEM-SS cells
# HIV-1 IIIB = test: microbe, parasite or virus in culture; format: cell-based; details: Human immunodeficiency virus 1, IIIB, CEM-SS, read-out: Inhibition % @ 10 μM
compound,measurement,setting,value
"3’-Azidothymidine [AZT, reference compound]",rate of nucleotide excision of the terminal nucleotide,[1],0.024 min⁻¹
same,EC50,[2],7900 nM
same,EC50,"WT HIV-1; read-out: Single Replication Cycle Assay EC50, WT HIV, WT HIV-1, P4R5 cells",140 nM
same,EC50,[3],120 nM
"Cc1cn([C@H]2C[C@H](n3nncc3COc3cccc4ccccc34)[C@@H](CO)O2)c(=O)[nH]c1=O [Compound 9c, 1-((2R,4S,5S)-5-(Hydroxymethyl)-4-(5-((naphthalen-1-yloxy)methyl)-1H-1,2,3-triazol-1-yl)tetrahydrofuran-2-yl)-5-methylpyrimidine-2,4(1H,3H)-dione]",antiviral activity in the single replication cycle assay,WT HIV-1,none showed significant antiviral activity
"COc1ccc2cc(OCc3cnnn3[C@H]3C[C@H](n4cc(C)c(=O)[nH]c4=O)O[C@@H]3CO)ccc2c1 [Compound 9e, 1-((2R,4S,5S)-5-(Hydroxymethyl)-4-(5-(((6-methoxynaphthalen-2-yl)oxy)methyl)-1H-1,2,3-triazol-1-yl)tetrahydrofuran-2-yl)-5-methylpyrimidine-2,4(1H,3H)-dione]",antiviral activity in the single replication cycle assay,WT HIV-1,none showed significant antiviral activity
"Cc1cn([C@H]2C[C@H](n3nncc3-c3ccc(Oc4ccccc4)cc3)[C@@H](CO)O2)c(=O)[nH]c1=O [Compound 18i, 1-((2R,4S,5S)-5-(Hydroxymethyl)-4-(5-(4-phenoxyphenyl)-1H-1,2,3-triazol-1-yl)tetrahydrofuran-2-yl)-5-methylpyrimidine-2,4(1H,3H)-dione]",antiviral activity in the single replication cycle assay,WT HIV-1,none showed significant antiviral activity
"Cc1cn([C@H]2C[C@H](n3nncc3-c3ccc(-c4ccccc4)cc3)[C@@H](CO)O2)c(=O)[nH]c1=O [Compound 18j, 1-((2R,4S,5S)-4-(5-([1,1’-Biphenyl]-4-yl)-1H-1,2,3-triazol-1-yl)-5-(hydroxymethyl)tetrahydrofuran-2-yl)-5-methylpyrimidine-2,4(1H,3H)-dione]",antiviral activity in the single replication cycle assay,WT HIV-1,none showed significant antiviral activity
"Cc1cn([C@H]2C[C@H](n3nncc3C3CCCCC3)[C@@H](CO)O2)c(=O)[nH]c1=O [Compound 18l, 1-((2R,4S,5S)-4-(5-Cyclohexyl-1H-1,2,3-triazol-1-yl)-5-(hydroxymethyl)tetrahydrofuran-2-yl)-5-methylpyrimidine-2,4(1H,3H)-dione]","viability at 6 days, 10 µM",[4],100%
same,antiviral activity in the single replication cycle assay,WT HIV-1,did not produce significant antiviral activity; also recorded: none showed significant antiviral activity
same,inhibition at 10 µM,HIV-1 IIIB,100%
"Cc1cn([C@H]2C[C@H](n3nncc3-c3ccc(Cl)c(Cl)c3)[C@@H](CO)O2)c(=O)[nH]c1=O [Compound 18n, 1-((2R,4S,5S)-4-(5-(3,4-Dichlorophenyl)-1H-1,2,3-triazol-1-yl)-5-(hydroxymethyl)tetrahydrofuran-2-yl)-5-methylpyrimidine-2,4(1H,3H)-dione]",antiviral activity in the single replication cycle assay,WT HIV-1,none showed significant antiviral activity
Cc1cn([C@H]2C[C@H](n3nncc3-c3cccc4ccccc34)[C@@H](COP(=O)([O-])OP(=O)([O-])OP(=O)([O-])[O-])O2)c(=O)[nH]c1=O.[Na+].[Na+].[Na+].[Na+] [Compound 21a],rate of nucleotide excision of the terminal nucleotide,[1],0.0126 min⁻¹
